The values that follow come from ChEMBL document CHEMBL1128172, “Structure-activity relationships of cyclic pentapeptide endothelin A receptor antagonists” (J Med Chem, 1995).

Structures are written as SMILES.

For this test, the target named is T1, Endothelin-1 receptor (Sus scrofa, UniProt Q29010).
T1 sequence (Q29010 whole entry): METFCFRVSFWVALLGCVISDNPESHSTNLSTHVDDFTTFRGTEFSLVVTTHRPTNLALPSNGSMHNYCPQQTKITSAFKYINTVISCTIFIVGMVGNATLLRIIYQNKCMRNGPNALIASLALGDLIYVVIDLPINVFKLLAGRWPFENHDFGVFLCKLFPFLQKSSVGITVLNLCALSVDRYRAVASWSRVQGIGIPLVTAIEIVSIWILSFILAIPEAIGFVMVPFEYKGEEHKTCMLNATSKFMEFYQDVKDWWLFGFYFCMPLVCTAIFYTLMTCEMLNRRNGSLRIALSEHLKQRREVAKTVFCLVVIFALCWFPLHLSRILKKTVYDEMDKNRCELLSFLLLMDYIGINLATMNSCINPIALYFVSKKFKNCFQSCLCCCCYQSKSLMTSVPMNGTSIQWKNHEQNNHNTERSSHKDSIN
Description: The compound was tested for binding inhibitory activity against Endothelin A receptor from porcine aortic smooth muscle membranes.
`COC(=O)C[C@H]1NC(=O)[C@@H](Cc2c[nH]c3ccccc23)NC(=O)[C@H](CC(C)C)NC(=O)[C@@H](C(C)C)NC(=O)[C@@H]2CCCN2C1=O` (single isomer, unassigned) yielded an IC50 max of 0.39 µM.

The molecule `CC(C)C[C@@H]1NC(=O)[C@@H](C(C)C)NC(=O)[C@H](Cc2ccccc2)NC(=O)[C@@H](CC(=O)O)NC(=O)[C@@H](Cc2c[nH]c3ccccc23)NC1=O` (single isomer, unassigned) had an IC50 max of 0.21 µM.

For `CC(C)[C@H]1NC(=O)[C@H](CC(=O)O)NC(=O)[C@@H](CC(=O)O)NC(=O)[C@@H](Cc2c[nH]c3ccccc23)NC(=O)[C@H](C)NC1=O` (single isomer, unassigned), the IC50 max worked out at 2.8 µM.

For `CC(C)C[C@@H]1NC(=O)[C@@H](C(C)C)NC(=O)[C@H](C(C)C)NC(=O)[C@@H](CC(=O)O)NC(=O)[C@@H](Cc2c[nH]c3ccccc23)NC1=O` (single isomer, unassigned), the IC50 max came to 0.53 µM.

For the molecule `CC(C)C[C@@H]1NC(=O)[C@@H](C(C)C)NC(=O)CN(C)C(=O)[C@@H](CC(=O)O)NC(=O)[C@@H](Cc2c[nH]c3ccccc23)NC1=O` (single isomer, unassigned), the IC50 max amounted to 0.032 µM.

The molecule `CC(C)C[C@@H]1NC(=O)[C@@H](C)NC(=O)[C@H](CC(=O)O)NC(=O)[C@H](Cc2c[nH]c3ccccc23)NC(=O)[C@@H](CC(C)C)NC1=O` showed an IC50 max of 0.44 µM.

Molecule `CC[C@H](C)[C@@H]1NC(=O)[C@@H](C(C)C)NC(=O)[C@@H]2CCCN2C(=O)[C@@H](CC(=O)O)NC(=O)[C@@H](Cc2c[nH]c3ccccc23)NC1=O` (stereo in doubt) returned an IC50 max of 0.23 µM.

In the case of `CC(C)C[C@@H]1NC(=O)[C@@H](C(C)C)NC(=O)[C@H](CCC(N)=O)NC(=O)[C@@H](CC(=O)O)NC(=O)[C@@H](Cc2c[nH]c3ccccc23)NC1=O` (single isomer, unassigned), the IC50 max was 0.16 µM.

With `CC(C)C[C@@H]1NC(=O)[C@@H](C(C)(C)S)NC(=O)[C@@H]2CCCN2C(=O)[C@@H](CC(=O)O)NC(=O)[C@@H](Cc2c[nH]c3ccccc23)NC1=O` (single isomer, unassigned), the IC50 max was 0.049 µM.

`CC(C)C[C@@H]1NC(=O)[C@@H](C(C)C)NC(=O)[C@@H]2CCCN2C(=O)[C@@H](CC(=O)O)NC(=O)[C@@H](Cc2c[nH]cn2)NC1=O` (single isomer, unassigned) yielded an IC50 max of more than 100 µM.

Turning to `CC(C)C[C@@H]1NC(=O)[C@@H](C(C)C)NC(=O)[C@@H]2CCCN2C(=O)[C@@H](CCO)NC(=O)[C@@H](Cc2c[nH]c3ccccc23)NC1=O` (single isomer, unassigned), the IC50 max was determined as 1.7 µM.

In turn, `CC(C)C[C@@H]1NC(=O)[C@@H](C(C)C)NC(=O)[C@@H]2CCCCN2C(=O)[C@@H](CC(=O)O)NC(=O)[C@@H](Cc2c[nH]c3ccccc23)NC1=O` had an IC50 max of 0.013 µM.

For `CC(C)[C@H]1NC(=O)[C@H](C)NC(=O)[C@@H](CC(=O)O)NC(=O)[C@@H](Cc2c[nH]c3ccccc23)NC(=O)[C@@H]2CCCN2C1=O` (single isomer, unassigned), the IC50 max amounted to 8.5 µM.

For `CC(C)C[C@@H]1NC(=O)[C@@H](C(C)C)NC(=O)[C@H](CO)NC(=O)[C@@H](CC(=O)O)NC(=O)[C@@H](Cc2c[nH]c3ccccc23)NC1=O` (single isomer, unassigned), the IC50 max turned out to be 0.19 µM.

Molecule `CC(C)C[C@@H]1NC(=O)[C@@H](C(C)C)NC(=O)[C@H](C)NC(=O)[C@H](CCC(=O)O)NC(=O)[C@H](Cc2c[nH]c3ccccc23)NC1=O` (single isomer, unassigned) returned an IC50 max of more than 100 µM.

For `CSCC[C@@H]1NC(=O)[C@@H](CC(=O)O)NC(=O)[C@@H](Cc2c[nH]c3ccccc23)NC(=O)[C@H](CC(C)C)NC(=O)[C@@H](C(C)C)NC1=O` (single isomer, unassigned), the IC50 max worked out at 0.13 µM.

`CC(C)C[C@@H]1NC(=O)[C@@H](C(C)C)NC(=O)[C@@H]2CCCN2C(=O)[C@@H](CC(=O)O)NC(=O)[C@@H](Cc2cn(C=O)c3ccccc23)NC1=O` (single isomer, unassigned) came in with an IC50 max of 0.018 µM.

Molecule `CCCC[C@H]1NC(=O)[C@@H]2CCCN2C(=O)[C@@H](CC(=O)O)NC(=O)[C@@H](Cc2c[nH]c3ccccc23)NC(=O)[C@H](CC(C)C)NC1=O` (single isomer, unassigned) returned an IC50 max of 0.12 µM.

Molecule `CC[C@H](C)[C@H]1NC(=O)[C@@H]2CCCN2C(=O)[C@@H](CC(=O)O)NC(=O)[C@@H](Cc2c[nH]c3ccccc23)NC(=O)[C@H](CC(C)C)NC1=O` showed an IC50 max of 0.012 µM.

Turning to `CC(C)C[C@H]1NC(=O)[C@H](C(C)C)NC(=O)[C@H]2C[C@@H](O)CN2C(=O)[C@H](CC(=O)O)NC(=O)[C@H](Cc2c[nH]c3ccccc23)NC1=O`, the IC50 max worked out at 0.018 µM.

For the molecule `CC(C)C[C@@H]1NC(=O)[C@@H](C(C)C)NC(=O)[C@H](C)N(C)C(=O)[C@@H](CC(=O)O)NC(=O)[C@@H](Cc2c[nH]c3ccccc23)NC1=O` (single isomer, unassigned), the IC50 max is 0.034 µM.

Take `CCCC[C@@H]1NC(=O)[C@@H](C(C)C)NC(=O)[C@@H]2CCCN2C(=O)[C@@H](CC(=O)O)NC(=O)[C@@H](Cc2c[nH]c3ccccc23)NC1=O` (single isomer, unassigned): the IC50 max amounted to 0.062 µM.

For `CC[C@@H](C)[C@H]1NC(=O)[C@@H]2CCCN2C(=O)[C@@H](CC(=O)O)NC(=O)[C@@H](Cc2c[nH]c3ccccc23)NC(=O)[C@H](CC(C)C)NC1=O`, the IC50 max was 0.064 µM.

On to `CC(C)C[C@@H]1NC(=O)[C@@H](C(C)C)NC(=O)CNC(=O)[C@@H](CC(=O)O)NC(=O)[C@@H](Cc2c[nH]c3ccccc23)NC1=O` (single isomer, unassigned), for which the IC50 max came out at 0.16 µM.

`CC(C)C[C@@H]1NC(=O)[C@@H](c2ccccc2)NC(=O)[C@@H]2CCCN2C(=O)[C@@H](CC(=O)O)NC(=O)[C@@H](Cc2c[nH]c3ccccc23)NC1=O` (single isomer, unassigned) yielded an IC50 max of 0.024 µM.

As for `CC(C)C[C@@H]1NC(=O)[C@@H](C(C)C)NC(=O)C(C)(C)NC(=O)[C@@H](CC(=O)O)NC(=O)[C@@H](Cc2c[nH]c3ccccc23)NC1=O` (single isomer, unassigned), the IC50 max worked out at 0.33 µM.

The molecule `CC(C)C[C@@H]1NC(=O)[C@@H](C(C)C)NC(=O)[C@H](CC(=O)O)NC(=O)[C@@H](CC(=O)O)NC(=O)[C@@H](Cc2c[nH]c3ccccc23)NC1=O` (single isomer, unassigned) displayed an IC50 max of 0.18 µM.

For the molecule `CC(C)C[C@@H]1NC(=O)[C@@H](C(C)(C)C)NC(=O)[C@@H]2CCCN2C(=O)[C@@H](CC(=O)O)NC(=O)[C@@H](Cc2c[nH]c3ccccc23)NC1=O` (single isomer, unassigned), the IC50 max worked out at 0.015 µM.

On to `CC(C)C[C@@H]1NC(=O)[C@@H](C(C)C)NC(=O)[C@@H]2CCCN2C(=O)[C@@H](CC(=O)O)NC(=O)[C@@H](Cc2cn(C(=O)OC(C)(C)C)c3ccccc23)NC1=O` (single isomer, unassigned), for which the IC50 max stood at 1.5 µM.

Consider `CC(C)C[C@@H]1NC(=O)[C@@H](C(C)C)NC(=O)[C@H](C)NC(=O)[C@H](CCC(=O)O)NC(=O)[C@@H](Cc2c[nH]c3ccccc23)NC1=O` (single isomer, unassigned), for which the IC50 max is more than 100 µM.

The molecule `CCC[C@@H]1NC(=O)[C@@H](C(C)C)NC(=O)[C@@H]2CCCN2C(=O)[C@@H](CC(=O)O)NC(=O)[C@@H](Cc2c[nH]c3ccccc23)NC1=O` (single isomer, unassigned) displayed an IC50 max of 0.033 µM.

The molecule `CC(C)C[C@H]1C(=O)N[C@H](Cc2c[nH]c3ccccc23)C(=O)N[C@H](CC(=O)O)C(=O)N2CCC[C@H]2C(=O)N[C@H](C(C)C)C(=O)N1C` (single isomer, unassigned) returned an IC50 max of 0.035 µM.

The molecule `CCC[C@H]1NC(=O)[C@@H]2CCCN2C(=O)[C@@H](CC(=O)O)NC(=O)[C@@H](Cc2c[nH]c3ccccc23)NC(=O)[C@H](CC(C)C)NC1=O` (single isomer, unassigned) showed an IC50 max of 0.047 µM.

Molecule `CC(C)C[C@@H]1NC(=O)[C@@H](C(C)C)NC(=O)[C@H](CCCN=C(N)N)NC(=O)[C@@H](CC(=O)O)NC(=O)[C@@H](Cc2c[nH]c3ccccc23)NC1=O` (single isomer, unassigned) showed an IC50 max of 0.15 µM.

Molecule `CC(C)C[C@@H]1NC(=O)CNC(=O)[C@H](CO)NC(=O)[C@@H](CC(=O)O)NC(=O)[C@@H](Cc2c[nH]c3ccccc23)NC1=O` (single isomer, unassigned) yielded an IC50 max of 35 µM.

On to `CC(C)C[C@@H]1NC(=O)[C@@H](C(C)C)NC(=O)[C@@H]2CCCN2C(=O)[C@@H](CC(=O)O)NC(=O)[C@@H](Cc2ccccc2)NC1=O` (single isomer, unassigned), for which the IC50 max is more than 100 µM.

Consider `CC(C)C[C@@H]1NC(=O)[C@@H](C(C)C)NC(=O)[C@H](Cc2c[nH]c3ccccc23)NC(=O)[C@@H](CC(=O)O)NC(=O)[C@@H](Cc2c[nH]c3ccccc23)NC1=O` (single isomer, unassigned), for which the IC50 max was determined as 0.15 µM.

On to `CC(C)C[C@@H]1NC(=O)[C@@H](C(C)C)NC(=O)[C@H](CS(=O)(=O)O)NC(=O)[C@@H](CC(=O)O)NC(=O)[C@@H](Cc2c[nH]c3ccccc23)NC1=O` (single isomer, unassigned), for which the IC50 max stood at 0.14 µM.

`CC(C)C[C@@H]1NC(=O)[C@@H](C(C)C)NC(=O)[C@H](C)NC(=O)[C@@H](CC(=O)O)NC(=O)[C@@H](Cc2c[nH]c3ccccc23)NC1=O` (single isomer, unassigned) came in with an IC50 max of 0.11 µM.

In turn, `CC(C)C[C@@H]1NC(=O)[C@@H](C2=CCC=CC2)NC(=O)[C@@H]2CCCN2C(=O)[C@@H](CC(=O)O)NC(=O)[C@@H](Cc2c[nH]c3ccccc23)NC1=O` (single isomer, unassigned) registered an IC50 max of 0.019 µM.
